Measurements from US4529600A, “Pentadeuterioretinoids” (SRI International, priority 1982, dated 1985).

How the values were obtained:
[1] = tested on: ornithine decarboxylase; assay: ODC assay: inhibition of induction of ornithine decarboxylase by 12-O-tetradecanoylphorbol-13-acetate in mouse skin; assay type: in vivo, mouse (female Charles River CD-1); conditions: topical, 1 hour before TPA (17 nmol)
Description: (§1) The ODC assay measures a compound's effect on the prevention of the induction of ODC. The tracheal organ culture assay measures a compound's ability to reverse keratinization. For comparison purposes retinoic acid was also tested by these assays.
The ODC assay is carried out as follows. Female Charles River CD-1 mice from Charles River Breeding Laboratories, Wilmington, Mass., are used (age 7 to 9 weeks). The dorsal hair of the mice is shaved 1 to 2 days before testing, and only mice showing no hair regrowth are used. A single dose of 12-O-tetradecanoylphorbol-13-acetate (TPA) (10.5 μg, 17 nmol) in 0.2 mL of acetone is applied topically to the back of each mouse. The test compound, at one of three dose levels (1.7, 17, and 170 nmol), dissolved in 0.2 mL of acetone is applied 1 hour before the TPA treatment to the test groups; the control group is treated with acetone alone. The mice are killed by cervical dislocation five hours after TPA treatment. Determinations are done in triplicate.
The epidermis is obtained from the sacrificed animals. To obtain sufficient material, the dorsal skins from 2 to b 3 mice in each treatment group are pooled. The depilatory agent Nudit® (Helena Rubinstein, New York) is applied to the shaved area of the skin; after 5 minutes, it is washed off thoroughly with cold tap water. […]
The supernatant fraction remaining after centrifugation of the homogenate at 10,000×g for 30 seconds at 0° C. is used for the enzyme assay. Enzyme activity is determined using the microassay for ODC as described by Verma and Boutwell to measure the release of ^14 CO2 from DL-[1-^14 C]-ornithine (58 mCi/mmol) after incubation with the 10,000×g supernatant. […]
Radioactivity is measured using a toluene-based scintillant (4 g of PPO and 50 mg of POPOP/L of toluene) in a Beckman LS-250 liquid scintillation counter. Enzyme activity is determined in triplicate and expressed as nanomoles of CO2 released in 30 minutes per milligram of protein. […] The protein concentrations of the epidermal extracts are determined by the Lowry procedure, using bovine serum albumin as the standard.

[2] = tested on: keratinization in hamster tracheal organ culture; assay: tracheal organ culture assay: reversal of keratinization in hamster tracheal organ culture; assay type: cell-based; conditions: 10 days in culture
Description: as §1
The tracheal organ culture assay is carried out as follows. Tracheas are taken from hamsters that are in very early stages of vitamin A deficiency and placed in organ culture. At the time of culture, the animals are still gaining weight; the tracheal epithelium is generally low columnar or cuboidal, with only occasional patches of squamous metaplasia. Each trachea is opened from the larynx to the carina along the membranous dorsal wall and cultured in a serum-free medium (CMRL-1066; with crystalline bovine insulin, 0.1 μg/ml; hydrocortisone hemisuccinate, 0.1 μg/ml; glutamine, 2 mM; penicillin, 100 units/ml; and streptomycin,100 μg/ml, added). Cultures are gassed with 50% oxygen, 45% nitrogen, and 5% CO2. The culture dishes are rocked at 35.5-36.0 degrees to allow the tracheas contact with both gas and medium. All tracheas are grown in medium containing no retinoid for the first 3 days. At the end of 3 days, some tracheas are harvested; almost all of these tracheas have significant squamous metaplasia, and approximately 60% have keratinized lesions. The remaining tracheas are then divided into different groups which are treated with either: (1) retinoid dissolved in dimethylsulfoxide (final concentration of DMSO in culture medium is never greater than 0.1%) or (2) an equivalent amount of DMSO alone. Culture medium is changed three times a week, and all of the remaining tracheas are harvested at the end of 10 days in culture. Tracheas are fixed in 10% buffered formalin and embedded in paraffin. Cross sections of five micrometers are made through the mid-portion, stained with hematoxylin and eosin, and then scored with a microscope for the presence of keratin and keratohyaline granules, both of which are found in approximately 90% of control cultures that received no retinoid for the entire 10 day culture period.

Compound	Inhibition of Induction of Ornithine Decarboxylase by 12-O-Tetradecanoylphorbol-13-acetate in Mouse Skin, % Inhibition of Control ([1]; dose 1.7 nmol)	Reversal of Keratinization, Active Cultures (%) ([2]; 10^-8 M)	Reversal of Keratinization, Active/Total Cultures ([2]; 10^-8 M)	Reversal of Keratinization, Active Cultures (%) ([2]; 10^-9 M)	Reversal of Keratinization, Active/Total Cultures ([2]; 10^-9 M)	Reversal of Keratinization, Active Cultures (%) ([2]; 10^-10 M)	Reversal of Keratinization, Active/Total Cultures ([2]; 10^-10 M)	Inhibition of Induction of Ornithine Decarboxylase by 12-O-Tetradecanoylphorbol-13-acetate in Mouse Skin, % Inhibition of Control ([1]; dose 17 nmol)
CC1=C(/C=C/C(C)=C/C=C/C(C)=C/C(=O)O)C(C)(C)CCC1 [(E)-retinoic acid]	87-91%	100%	236/236	88%	419/474	52%	134/256	
[2H]C([2H])([2H])C1=C(/C=C/C(C)=C/C=C/C(C)=C/C(=O)O)C(C)(C)CCC1([2H])[2H] [(E)-retinoic acid-4,4,18,18,18-d5]	90%			100%	8/8	86%	6/7	90%
